Test results published in patent publication EP1433789A1, “Pyrrolopyrazines and their use as selective apoptosis inducers” (Aponetics AG, priority 2002, dated 2004).

Columns and labels:
[1] = test system: K562; assay: Hoechst 33342 nuclear staining (Table 3); format: cell-based, human; design: key: 0 relating to no activity; 1 relating to weak activity comprising less than 50% of the cells; score 2 relating to strong activity comprising more than 50% of the cells
Experimental: (§1) This assay is performed in 96 well tissue culture plates. Appropriate number of cells (adherent cells: 3 - 5*10^3, suspension cells: 8 - 10*10^3) are being seeded out in 80 µl complete medium. Adherent cells are incubated for 24 h for proper spreading out before addition of test compounds while suspension cells are immediately treated with test compounds after seeding out. The test compounds are added in 20 µl complete medium containing max 5% DMSO. The final compound concentrations in the assays are 10 µM, 3 µM,1 µM and 0.3 µM, respectively. After 24 h or 48 h incubation at culture conditions, 10 µl medium containing Hoechst 33342 dye (Sigma B-2261) at 2-5 µg/ml are added to each well. The assay plates are then further incubated for 30 minutes and subsequently analyzed with a standard inverted fluorescence microscope. The readout allows the determination of the fraction of apoptotic nuclei as well as other morphological criteria specific for apoptosis as a function of the treatment. The following scores are used: 0 relating to no activity, 1 relating to weak activity comprising less than 50% of the cells and score 2 relating to strong activity comprising more than 50% of the cells.

[2] = test system: Jurkat; assay: Hoechst 33342 nuclear staining (Table 3); format: cell-based, human; design: key: 0 relating to no activity; 1 relating to weak activity comprising less than 50% of the cells; score 2 relating to strong activity comprising more than 50% of the cells
Experimental: as §1

[3] = test system: Ramos; assay: Hoechst 33342 nuclear staining (Table 3); format: cell-based, human; design: key: 0 relating to no activity; 1 relating to weak activity comprising less than 50% of the cells; score 2 relating to strong activity comprising more than 50% of the cells; conditions: 24h
Experimental: as §1

[4] = test system: HeLa; assay: Hoechst 33342 nuclear staining (Table 3); format: cell-based, human; design: key: 0 relating to no activity; 1 relating to weak activity comprising less than 50% of the cells; score 2 relating to strong activity comprising more than 50% of the cells
Experimental: as §1

[5] = test system: A20; assay: Hoechst 33342 nuclear staining (Table 3); format: cell-based, mouse; design: key: 0 relating to no activity; 1 relating to weak activity comprising less than 50% of the cells; score 2 relating to strong activity comprising more than 50% of the cells
Experimental: as §1

[6] = test system: Jurkat; assay: AnnexinV/7-AAD staining; format: cell-based, human; conditions: 10 µM, 24 h treatment
Experimental: (§2) Adherent cells (1 - 2*10^5) are 24 h prior to compound treatment seeded into 24 well tissue culture plates. Suspension cells are pipetted into P-tubes immediately before treatment. Test compounds are added leading to a final concentrations of 10 µM. After 24 h treatment cells are harvested (in case of adherent cells by trypsinization) and transferred to FACS tubes (BD Biosciences). After centrifugation and removal of the supernatant, 100 µl complete medium containing AnnexinV-GST (10 µg) is added, mixed and incubated at 4°C for 30 minutes. Subsequently, the cells are washed once with medium and incubated with 100 µl anti-GST Alexa 488 (Molecular Probes A-11131) in medium diluted 1:500 for 30 minutes at 4°C. Then, cells are washed once and stained with 1 µg/ml 7-aminoactinomycin D (7-AAD) (Molecular Probes A-1310) in 250 µl medium and analyzed on the FACSCalibur™. AnnexinV is measured in FL1 whereas 7-AAD is measured in FL3. In Table 5 the percentage of positively stained cells after treatment with the respective compounds are indicated. The following scores are used: Score 0 relates to less than 10%, score 1 relates to more than 10% but less than 50% and score 2 relates to more than 50% positivity.

[7] = test system: Ramos; assay: AnnexinV/7-AAD staining; format: cell-based, human; conditions: 10 µM, 24 h treatment
Experimental: as §2

[8] = test system: HeLa; assay: AnnexinV/7-AAD staining; format: cell-based, human; conditions: 10 µM, 24 h treatment
Experimental: as §2

[9] = test system: A20; assay: AnnexinV/7-AAD staining; format: cell-based, mouse; conditions: A20, 10 µM, 24 h treatment
Experimental: as §2

Question: Which “Hoechst 33342 nuclear staining” value ([1]; K562, 24h, conc 0.3 (µM)) does the source give for “[2-(3-Methoxy-6,6-dimethyl-5,6-dihydro-6a,7,12-triaza-dibenzofluoren-2-yloxy)-ethyl]-dimethyl-amine [No. 6]” here?
Answer: 0

Question: What about the “Hoechst 33342 nuclear staining” value ([1]; K562, 24h, conc 1 (µM)) of the same substance?
Answer: 0

Question: What about the “Hoechst 33342 nuclear staining” value ([1]; K562, 24h, conc 3 (µM)) of the same substance?
Answer: 0

Question: And the “Hoechst 33342 nuclear staining” value ([1]; K562, 24h, conc 10 (µM))?
Answer: 2 (score 2 relating to strong activity comprising more than 50% of the cells)

Question: What about the “Hoechst 33342 nuclear staining” value ([1]; K562, 48h, conc 0.3 (µM)) of the same substance?
Answer: 0

Question: What about the “Hoechst 33342 nuclear staining” value ([1]; K562, 48h, conc 1 (µM)) of the same substance?
Answer: 0

Question: What about the “Hoechst 33342 nuclear staining” value ([1]; K562, 48h, conc 3 (µM)) of the same substance?
Answer: 0

Question: What about the “Hoechst 33342 nuclear staining” value ([1]; K562, 48h, conc 10 (µM)) of the same substance?
Answer: 2 (score 2 relating to strong activity comprising more than 50% of the cells)

Question: And the “Hoechst 33342 nuclear staining” value ([2]; 24h, conc 0.3 (µM))?
Answer: 0

Question: What about the “Hoechst 33342 nuclear staining” value ([2]; 24h, conc 1 (µM)) of the same substance?
Answer: 0

Question: What about the “Hoechst 33342 nuclear staining” value ([2]; 24h, conc 3 (µM)) of the same substance?
Answer: 0

Question: And the “Hoechst 33342 nuclear staining” value ([2]; 24h, conc 10 (µM))?
Answer: 2 (score 2 relating to strong activity comprising more than 50% of the cells)

Question: And the “Hoechst 33342 nuclear staining” value ([2]; 48h, conc 0.3 (µM))?
Answer: 0

Question: What about the “Hoechst 33342 nuclear staining” value ([2]; 48h, conc 1 (µM)) of the same substance?
Answer: 2 (score 2 relating to strong activity comprising more than 50% of the cells)

Question: What about the “Hoechst 33342 nuclear staining” value ([2]; 48h, conc 3 (µM)) of the same substance?
Answer: 2 (score 2 relating to strong activity comprising more than 50% of the cells)

Question: And the “Hoechst 33342 nuclear staining” value ([2]; 48h, conc 10 (µM))?
Answer: 2 (score 2 relating to strong activity comprising more than 50% of the cells)

Question: And the “Hoechst 33342 nuclear staining” value ([3]; conc 0.3 (µM))?
Answer: 0

Question: What about the “Hoechst 33342 nuclear staining” value ([3]; conc 1 (µM)) of the same substance?
Answer: 0

Question: And the “Hoechst 33342 nuclear staining” value ([3]; conc 3 (µM))?
Answer: 0

Question: And the “Hoechst 33342 nuclear staining” value ([3]; conc 10 (µM))?
Answer: 2 (score 2 relating to strong activity comprising more than 50% of the cells)

Question: And the “Hoechst 33342 nuclear staining” value ([4]; 24h, conc 0.3 (µM))?
Answer: 0

Question: What about the “Hoechst 33342 nuclear staining” value ([4]; 24h, conc 1 (µM)) of the same substance?
Answer: 0

Question: And the “Hoechst 33342 nuclear staining” value ([4]; 24h, conc 3 (µM))?
Answer: 0

Question: What about the “Hoechst 33342 nuclear staining” value ([4]; 24h, conc 10 (µM)) of the same substance?
Answer: 2 (score 2 relating to strong activity comprising more than 50% of the cells)

Question: And the “Hoechst 33342 nuclear staining” value ([4]; 48h, conc 0.3 (µM))?
Answer: 0

Question: What about the “Hoechst 33342 nuclear staining” value ([4]; 48h, conc 1 (µM)) of the same substance?
Answer: 0

Question: What about the “Hoechst 33342 nuclear staining” value ([4]; 48h, conc 3 (µM)) of the same substance?
Answer: 0

Question: What about the “Hoechst 33342 nuclear staining” value ([4]; 48h, conc 10 (µM)) of the same substance?
Answer: 2 (score 2 relating to strong activity comprising more than 50% of the cells)

Question: And the “Hoechst 33342 nuclear staining” value ([5]; A20, 24h, conc 0.3 (µM))?
Answer: 0

Question: What about the “Hoechst 33342 nuclear staining” value ([5]; A20, 24h, conc 1 (µM)) of the same substance?
Answer: 0

Question: What about the “Hoechst 33342 nuclear staining” value ([5]; A20, 24h, conc 3 (µM)) of the same substance?
Answer: 0

Question: What about the “Hoechst 33342 nuclear staining” value ([5]; A20, 24h, conc 10 (µM)) of the same substance?
Answer: 0

Question: And the “Hoechst 33342 nuclear staining” value ([5]; A20, 48h, conc 0.3 (µM))?
Answer: 0

Question: And the “Hoechst 33342 nuclear staining” value ([5]; A20, 48h, conc 1 (µM))?
Answer: 0

Question: And the “Hoechst 33342 nuclear staining” value ([5]; A20, 48h, conc 3 (µM))?
Answer: 0

Question: And the “Hoechst 33342 nuclear staining” value ([5]; A20, 48h, conc 10 (µM))?
Answer: 2 (score 2 relating to strong activity comprising more than 50% of the cells)

Question: What about the “percentage of positively stained cells (AnnexinV/7-AAD staining)” value (from here on “percentage of positively stained cells”) [6] of the same substance?
Answer: 2 (score 2 relates to more than 50% positivity)

Question: And the “percentage of positively stained cells” value [7]?
Answer: 2 (score 2 relates to more than 50% positivity)

Question: And the “percentage of positively stained cells” value [8]?
Answer: 2 (score 2 relates to more than 50% positivity)

Question: What about the “percentage of positively stained cells” value [9] of the same substance?
Answer: 2 (score 2 relates to more than 50% positivity)
